Experimental data published in publication PMC8795738, “The Tarantula Venom Peptide Eo1a Binds to the Domain II S3-S4 Extracellular Loop of Voltage-Gated Sodium Channel NaV1.8 to Enhance Activation” (Frontiers in Pharmacology, 2022).
Where a SMILES comes first, the peptide text is derived from it. Bridges are numbered along the chain shown (N, C = ends).

Assays:
DRG neurons = assay: Calcium imaging of dorsal root ganglion (DRG) neurons; type: cell-based, mouse
From the text: Adult male C57BL/6J mice aged 4–8 weeks were sourced from the Animal Resource Centre (Canning Vale, Western Australia). Adult male NaV1.8 knockouts ([Nassar et al., 2004]) (aged 8–11 weeks) and wild-type littermates were housed and tested at University College London. Animals were housed in groups of three or four per cage under 12-h light-dark cycles and were provided with standard rodent chow and water ad libitum. Ethical approval for experiments involving animals was obtained from The University of Queensland animal ethics committee (TRI/IMB/093/17, IMB/PACE/421/18) and the United Kingdom Home Office (project licence PPL 70/7382). All experiments were conducted in accordance with the International Association for the Study of Pain Guidelines for the Use of Animals in Research and the Australian Code of Practice for the Care and Use of Animals for Scientific Purposes, 8th edition (2013).
For Ca^2+ imaging experiments, DRG neurons were isolated from 4 week old male C57BL/6J mice as previously described ([Robinson et al., 2018]). DRG neurons were dissociated and plated in 96-well poly-D-lysine-coated culture plates grown in Dulbecco’s modified Eagle’s medium supplemented with 10% fetal bovine serum (FBS) and penicillin/streptomycin and cultured for 24 h at 37°C with 5% CO2. Dissociated DRG neurons were loaded with Fluo-4 AM calcium indicator (5 μM) for 1 h, then washed with Hanks’ balanced salt solution (HBSS) containing 20 mM HEPES. Fluorescence was measured using a Nikon Ti-E Deconvolution inverted microscope, in conjunction with a Lumencor Spectra LED light source (excitation, 485 nm; emission, 521 nm). Images were acquired at 1 frame per s using a 20× objective. […] Only excitable cells responding to KCl were included for analysis. Cells were classified as responders if they had at least a 1.5-fold increase in fluorescence over baseline.

NaV1.5 = assay: I-V protocol, whole-cell patch-clamp, NaV1.5; type: cell-based, human; settings: Eo1a 10 μM
Description: (§1) Human Embryonic Kidney (HEK) 293 cells stably expressing human NaV1.1 to NaV1.7/β1 (SB Drug Discovery, Glasgow, United Kingdom), Chinese Hamster Ovary (CHO) cells stably expressing human NaV1.8/β3 in a tetracycline-inducible system (ChanTest, Cleveland, OH, United States), and HEK293 cells stably expressing rat transient receptor potential vanilloid 1 (TRPV1) were cultured as previously described ([Yin et al., 2020]). Human KV2.1 and NaV1.7 mutants were transiently transfected into HEK293 cells stably expressing β1/β2 using Lipofectamine 2000 (Thermo Fisher Scientific, Scoresby, VIC, Australia) and used for patch-clamp experiments 48 h after transfection. Cells were grown in an incubator at 37°C with 5% CO2 and passaged every 3–4 d (at 70–80% confluency) using TrypLE Express (Thermo Fisher Scientific).
Automated whole-cell patch-clamp recordings were performed with a QPatch-16 automated electrophysiology platform (Sophion Bioscience, Ballerup, Denmark) using single-hole (QPlate 16 with a standard resistance of 2 ± 0.4 MΩ) or multi-hole (QPlate 16X with a standard resistance 0.2 ± 0.04 MΩ, NaV1.8 only) as previously described ([McMahon et al., 2020]).
The extracellular solution (ECS) consisted of (in mM) 145 NaCl (replaced with 70 choline chloride for NaV1.4, NaV1.5 and NaV1.7), 4 KCl, 2 CaCl2, 1 MgCl2, 10 HEPES, and 10 glucose, pH to 7.4 with NaOH (adjusted to 305 mOsm/L with sucrose). For NaV recordings the intracellular solution (ICS) consisted of (in mM) 140 CsF, 1 EGTA, 5 CsOH, 10 HEPES, and 10 NaCl, pH to 7.3 with CsOH (adjusted to 320 mOsm/L with sucrose). For KV2.1 recordings the ICS consisted of (in mM) 50 KCl, 60 KF, 10 EGTA, 10 HEPES, 10 NaCl pH to 7.3 with KOH (adjusted to 320 mOsm/L with sucrose). TTX (1 μM) was added to the ECS for NaV1.8 recordings to inhibit background endogenous TTX sensitive current in CHO cells.
I-V curves were obtained with a holding potential of −90 mV followed by a series of 500 ms step pulses that ranged from −110 to +80 mV in 5-mV increments (repetition interval 5 s) before and after 5 min incubation with Eo1a (10 μM). Conductance-voltage (G-V) curves were obtained by calculating the conductance (G) at each voltage (V) using equation G = I/(V − V rev ), where V rev is the reversal potential. G-V curves were fitted with a Boltzmann equation. […]
The time constant of fast inactivation (τ) was computed by fitting the current decay traces with a single exponential function using QPatch Assay Software 5.6 (Sophion). The time to peak was calculated from pulse onset to peak inward current using QPatch Assay Software 5.6 (Sophion).

[1] = tested on: NaV1.7 with DIV S3-S4 loop of NaV1.8; assay: Voltage-dependence of activation, NaV1.7/NaV1.8 chimera DIV S3-S4; type: cell-based, human; settings: Eo1a 10 μM; NaV1.7 with NaV1.8 DIV S3-S4; HEK293 β1/β2, transient; mean ± SEM, n = 3–6 cells
Description: as §1
Wild-type (WT) hNaV1.7 cDNA (NM_002,977, a gift from Dr James Cox, University College London) was subjected to in vitro site-directed mutagenesis using the QuikChange™ XL mutagenesis kit (Agilent Technologies) following the manufacturer’s instructions. NaV1.7 mutants were generated by substituting the domain II (DII) S1-S2 loop, the DII S3-S4 loop, the domain IV (DIV) S1-S2 loop and the DIV S3-S4 loop in NaV1.7 with the corresponding regions of NaV1.8. The mutations were verified by sequencing at the Brisbane node of the Australian Genome Research Facility. […]

For CC[C@H](C)[C@@H]1NC(=O)[C@H](CCCNC(=N)N)NC(=O)[C@@H]2CSSC[C@@H]3NC(=O)CNC(=O)CNC(=O)[C@H](CC(C)C)NC(=O)[C@H](Cc4ccccc4)NC(=O)[C@H](Cc4c[nH]c5ccccc45)NC(=O)[C@H](CCCNC(=N)N)NC(=O)[C@@H](NC(=O)[C@@H](N)CC(=O)O)CSSC[C@H](NC(=O)[C@H](CSSC[C@@H](C(=O)N[C@@H](C)C(=O)N[C@@H](Cc4c[nH]c5ccccc45)C(=O)N[C@@H](CC(=O)O)C(=O)NCC(=O)N[C@H](C(=O)N[C@@H](Cc4ccccc4)C(N)=O)[C@@H](C)O)NC(=O)[C@H](Cc4ccc(O)cc4)NC(=O)[C@H](CCCCN)NC(=O)[C@H]([C@@H](C)CC)NC(=O)[C@H](Cc4ccc(O)cc4)NC(=O)CNC(=O)[C@H](CC(=O)O)NC1=O)NC(=O)[C@H](CC(=O)O)NC(=O)[C@H](CO)NC(=O)[C@H](CC(=O)O)NC(=O)[C@H](CCCCN)NC(=O)[C@H](CO)NC3=O)C(=O)N[C@@H](CCCCN)C(=O)N[C@@H](Cc1c[nH]cn1)C(=O)N[C@@H](CC(C)C)C(=O)N[C@@H](C)C(=O)N2 [Eo1a] (H-DCRWFLGGCSKDSDCCKHLACRIDGYIKYCAWDGTF-NH2; disulfide 2-16, 9-21, 15-30 (inferred); N-terminus assumed), the “neurons activated in the presence of TTX” value (DRG neurons; Eo1a 10 μM + TTX 1 μM, dissociated DRG neurons of C57BL/6J mice, Fluo-4, mean ± SEM of 2–3 wells) was 30 ± 2%, the “neurons with Ca2+ influx (activated)” value (DRG neurons; Eo1a 10 μM, dissociated DRG neurons of C57BL/6J mice, Fluo-4, responder = at least 1.5-fold fluorescence increase, without TTX, mean ± SEM of 2–3 wells) was 44 ± 3% and the “size of activated neurons” value (DRG neurons; Eo1a 10 μM, n = 473 alone, n = 317 with TTX, distribution did not change with TTX) was “smaller size”. For the same compound, the “peak current I/I0” value (NaV1.5; 5 min, peak from I-V protocol at any voltage, normalised to buffer control, HEK293 hNaV1.5/β1, mean ± SEM, n = 4–6 cells) was 0.41 ± 0.05, the V1/2 activation (NaV1.5; NaV1.5, 5 min, control −30.3 ± 4.0 mV, mean ± SEM, n = 4–6) was −27.1 ± 2.2 mV and the “V1/2 inactivation (steady-state fast inactivation)” value (NaV1.5; NaV1.5, 5 min, control −70.2 ± 0.9 mV, mean ± SEM, n = 4–6) was −75.5 ± 1.0. The “effect on inactivation kinetics” value (NaV1.5; NaV1.5, test pulse −20 mV) was “minimal effect” and the ΔV1/2 activation [1] was −6.7 ± 0.5 mV.
